Assay results reported in PubChem BioAssay AID330 (DTP/NCI, 2004).
Values joined by “and” are separate entries in the source; they are usually repeats but may differ in a detail not shown here. Identical values can stand only once. Toxic doses and inconclusive results are not listed.

Test system: P388 leukemia ip, CD2F1 mice, survival T/C
Assay: NCI In Vivo Anticancer Drug Screen. Data for tumor model P388 Leukemia (intraperitoneal) in CD2F1 (CDF1) mice
Details: endpoint: median survival time, higher = longer survival
Procedure, shortened: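 Mice carrying the transplanted tumor received test compound or vehicle. Survival was recorded in each group, and the value is the treated-group measurement divided by that of the vehicle-treated control group.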

[1] = dose: 50.0 mg/kg/injection, schedule: Q01DX009 (ip), vehicle: Klucel (hydroxypropylcellulose) (HPC)
[2] = dose: 100.0 mg/kg/injection, schedule: Q01DX009 (ip), vehicle: Klucel (hydroxypropylcellulose) (HPC)
[3] = dose: 200.0 mg/kg/injection, schedule: Q01DX009 (ip), vehicle: Klucel (hydroxypropylcellulose) (HPC)
[4] = dose: 12.5 mg/kg/injection, schedule: Q01DX005 (ip), vehicle: Klucel (hydroxypropylcellulose) (HPC)
[5] = dose: 25.0 mg/kg/injection, schedule: Q01DX005 (ip), vehicle: Klucel (hydroxypropylcellulose) (HPC)
[6] = dose: 50.0 mg/kg/injection, schedule: Q01DX005 (ip), vehicle: Klucel (hydroxypropylcellulose) (HPC)
[7] = dose: 60.0 mg/kg/injection, schedule: Q01DX005 (ip), vehicle: saline with Tween-80
[8] = dose: 120.0 mg/kg/injection, schedule: Q01DX005 (ip), vehicle: saline with Tween-80
[9] = dose: 240.0 mg/kg/injection, schedule: Q01DX005 (ip), vehicle: saline with Tween-80
[10] = dose: 100.0 mg/kg/injection, schedule: Q04DX003 (ip), vehicle: Klucel (hydroxypropylcellulose) (HPC)
[11] = dose: 200.0 mg/kg/injection, schedule: Q04DX003 (ip), vehicle: Klucel (hydroxypropylcellulose) (HPC)
[12] = dose: 50.0 mg/kg/injection, schedule: Q01DX005 (ip), vehicle: saline with Tween-80
[13] = dose: 100.0 mg/kg/injection, schedule: Q01DX005 (ip), vehicle: saline with Tween-80
[14] = dose: 50.0 mg/kg/injection, schedule: Q01DX009 (ip), vehicle: saline
[15] = dose: 100.0 mg/kg/injection, schedule: Q01DX009 (ip), vehicle: saline
[16] = dose: 200.0 mg/kg/injection, schedule: Q01DX009 (ip), vehicle: saline
[17] = dose: 50.0 mg/kg/injection, schedule: Q01DX009 (ip), vehicle: saline with Tween-80
[18] = dose: 100.0 mg/kg/injection, schedule: Q01DX009 (ip), vehicle: saline with Tween-80
[19] = dose: 200.0 mg/kg/injection, schedule: Q01DX009 (ip), vehicle: saline with Tween-80

## CCC1=CC2CN(CCc3c([nH]c4ccccc34)C(C(=O)OC)(c3cc4c(cc3OC)N(C)C3C(C(=O)OC)=CC5(CC)CCCN6CCC43C65)C2)C1 (configuration not stated)
dose: 12.5 mg/kg/injection, schedule: Q01DX001 (ip), vehicle: water
  T/C: 100 % of control
dose: 25.0 mg/kg/injection, schedule: Q01DX001 (ip), vehicle: water
  T/C: 100 % of control
dose: 50.0 mg/kg/injection, schedule: Q01DX001 (ip), vehicle: water
  T/C: 112 % of control
dose: 100.0 mg/kg/injection, schedule: Q01DX001 (ip), vehicle: water
  T/C: 100 % of control
dose: 200.0 mg/kg/injection, schedule: Q01DX001 (ip), vehicle: water
  T/C: 100 % of control

## S=C=[N][Sn]([N]=C=S)([c]1ccccc1)[c]1ccccc1.c1ccc2nc(-c3ccc4ccccc4n3)ccc2c1
dose: 1.87 mg/kg/injection, schedule: Q01DX005 (ip), vehicle: Klucel (hydroxypropylcellulose) (HPC)
  T/C: 97 % of control
dose: 3.75 mg/kg/injection, schedule: Q01DX005 (ip), vehicle: Klucel (hydroxypropylcellulose) (HPC)
  T/C: 109 % of control and 110 % of control

## CC1(O)Cn2c(=O)c3cc4ccccc4cc3c(=O)n2CC1(C)Br (configuration not stated)
dose: 50.0 mg/kg/injection, schedule: Q04DX002 (ip), vehicle: DMSO
  T/C: 105 % of control
dose: 100.0 mg/kg/injection, schedule: Q04DX002 (ip), vehicle: DMSO
  T/C: 101 % of control
dose: 200.0 mg/kg/injection, schedule: Q04DX002 (ip), vehicle: DMSO
  T/C: 101 % of control

## CN(CCN(C)C(=S)Cl)C(=S)Cl
[1]
  T/C: 99 % of control
[2]
  T/C: 100 % of control
[3]
  T/C: 96 % of control

## C#CC(C)C(C(C)=O)C(=O)c1ccccc1.[C-]#[O+].[C-]#[O+].[C-]#[O+].[C-]#[O+].[C-]#[O+].[C-]#[O+].[Co].[Co] (configuration not stated)
[4]
  T/C: 108 % of control
[5]
  T/C: 101 % of control
[6]
  T/C: 104 % of control and 95 % of control

## O=C1N=CC2(N=N2)C(=O)N1
dose: 3.75 mg/kg/injection, schedule: Q01DX005 (ip), vehicle: saline with Tween-80
  T/C: 161 % of control
dose: 7.5 mg/kg/injection, schedule: Q01DX005 (ip), vehicle: saline with Tween-80
  T/C: 155 % of control and 168 % of control
dose: 15.0 mg/kg/injection, schedule: Q01DX005 (ip), vehicle: saline with Tween-80
  T/C: 178 % of control and 190 % of control

## COc1ccc2c(c1)C(c1cccc3ccccc13)OC2 (configuration not stated)
[4]
  T/C: 100 % of control
[5]
  T/C: 88 % of control
[6]
  T/C: 86 % of control and 91 % of control

## O=C1CN(C2CC2N2CC(=O)NC(=O)C2)CC(=O)N1 (configuration not stated)
dose: 100.0 mg/kg/injection, schedule: Q04DX003 (ip), vehicle: saline with Tween-80
  T/C: 97 % of control
dose: 200.0 mg/kg/injection, schedule: Q04DX003 (ip), vehicle: saline with Tween-80
  T/C: 100 % of control
dose: 400.0 mg/kg/injection, schedule: Q04DX003 (ip), vehicle: saline with Tween-80
  T/C: 100 % of control

## CC1(C)OC(C2SCCS2)C2OC(=O)C(O[Si](C)(C)C(C)(C)C)C2O1 (configuration not stated)
[7]
  T/C: 99 % of control
[8]
  T/C: 93 % of control
[9]
  T/C: 93 % of control

## Fc1ccccc1CN1COc2c(cc(Cl)c3cccnc23)C1
[10]
  T/C: 93 % of control
[11]
  T/C: 100 % of control
dose: 400.0 mg/kg/injection, schedule: Q04DX003 (ip), vehicle: Klucel (hydroxypropylcellulose) (HPC)
  T/C: 97 % of control

## CSCCC([NH-])C(=O)O.CSCCC([NH-])C(=O)O.[Zn+2] (configuration not stated)
[12]
  T/C: 110 % of control
[13]
  T/C: 111 % of control

## CC1=CCCCN1C(=O)CC1C=CCS1(=O)=O (configuration not stated)
dose: 25.0 mg/kg/injection, schedule: Q01DX005 (ip), vehicle: saline with Tween-80
  T/C: 100 % of control
[12]
  T/C: 103 % of control
[13]
  T/C: 103 % of control

## C=CB(OCCC)OCCC
[14]
  T/C: 92 % of control
[15]
  T/C: 92 % of control
[16]
  T/C: 88 % of control

## COc1ccc(Cc2noc(=O)[nH]2)cc1
[17]
  T/C: 104 % of control
[18]
  T/C: 104 % of control
[19]
  T/C: 106 % of control

## Cc1cc(Cl)ccc1-n1nc(C)c2c(N)nc(N)nc21
[10]
  T/C: 109 % of control
[11]
  T/C: 102 % of control

## CCCCCCNC(=O)CNC(=O)C=[N+]=[N-]
[17]
  T/C: 101 % of control
[18]
  T/C: 101 % of control
[19]
  T/C: 97 % of control

## Nc1ccc2ccccc2c1[N+](=O)[O-]
[1]
  T/C: 105 % of control
[2]
  T/C: 102 % of control
[3]
  T/C: 113 % of control

## COC(=O)C1=CO[C@@H](OC2OC(CO)C(O)C(O)C2O)[C@H]2[C@@H]1C=C[C@@]21C=C([C@@H](C)O)C(=O)O1 (some centres not stated)
dose: 1.63 mg/kg/injection, schedule: Q01DX005 (ip), vehicle: Klucel (hydroxypropylcellulose) (HPC)
  T/C: 99 % of control
dose: 3.25 mg/kg/injection, schedule: Q01DX005 (ip), vehicle: Klucel (hydroxypropylcellulose) (HPC)
  T/C: 101 % of control
dose: 6.5 mg/kg/injection, schedule: Q01DX005 (ip), vehicle: Klucel (hydroxypropylcellulose) (HPC)
  T/C: 101 % of control
dose: 13.0 mg/kg/injection, schedule: Q01DX005 (ip), vehicle: Klucel (hydroxypropylcellulose) (HPC)
  T/C: 95 % of control

## CCOC(=O)C(=CN(C)c1ccc(C)cc1)C(=O)OCC
[17]
  T/C: 100 % of control
[18]
  T/C: 103 % of control
[19]
  T/C: 95 % of control

## C=C(C[P+](c1ccccc1)(c1ccccc1)c1ccccc1)C(=O)OCC
dose: 3.12 mg/kg/injection, schedule: Q01DX001 (ip), vehicle: saline
  T/C: 111 % of control
dose: 6.25 mg/kg/injection, schedule: Q01DX001 (ip), vehicle: saline
  T/C: 109 % of control
dose: 12.5 mg/kg/injection, schedule: Q01DX001 (ip), vehicle: saline
  T/C: 113 % of control
dose: 12.5 mg/kg/injection, schedule: Q01DX001 (ip), vehicle: suspension in saline
  T/C: 117 % of control

## O=C1c2ccccc2C(=O)N1CCc1ccccc1Br
[6]
  T/C: 104 % of control
dose: 100.0 mg/kg/injection, schedule: Q01DX005 (ip), vehicle: Klucel (hydroxypropylcellulose) (HPC)
  T/C: 96 % of control

## CC(C)NC(=O)c1ccccc1Sc1ccccc1CN(C)C(C)C
dose: 25.0 mg/kg/injection, schedule: Q01DX001 (ip), vehicle: saline with Tween-80
  T/C: 99 % of control
dose: 50.0 mg/kg/injection, schedule: Q01DX001 (ip), vehicle: saline with Tween-80
  T/C: 95 % of control
dose: 100.0 mg/kg/injection, schedule: Q01DX001 (ip), vehicle: saline with Tween-80
  T/C: 98 % of control and 102 % of control

## C=C(Br)C[C@]1(C(=O)OC)CC(=O)CC[C@H]1c1ccco1
dose: 60.0 mg/kg/injection, schedule: Q01DX005 (ip), vehicle: Klucel (hydroxypropylcellulose) (HPC)
  T/C: 108 % of control
dose: 120.0 mg/kg/injection, schedule: Q01DX005 (ip), vehicle: Klucel (hydroxypropylcellulose) (HPC)
  T/C: 107 % of control
dose: 240.0 mg/kg/injection, schedule: Q01DX005 (ip), vehicle: Klucel (hydroxypropylcellulose) (HPC)
  T/C: 106 % of control

## O=C1C=C(c2ccccc2)Sc2ccccc2N1
[1]
  T/C: 95 % of control
[2]
  T/C: 88 % of control
[3]
  T/C: 87 % of control
dose: 400.0 mg/kg/injection, schedule: Q01DX009 (ip), vehicle: Klucel (hydroxypropylcellulose) (HPC)
  T/C: 94 % of control

## CC1(C)CC(OP(=S)(N2CC2)N2CC2)CC(C)(C)N1O
dose: 100.0 mg/kg/injection, schedule: Q01DX001 (ip), vehicle: Klucel (hydroxypropylcellulose) (HPC)
  T/C: 160 % of control
dose: 400.0 mg/kg/injection, schedule: Q01DX001 (ip), vehicle: Klucel (hydroxypropylcellulose) (HPC)
  T/C: 187 % of control

## NC(=O)c1cn[nH]c1N
dose: 25.0 mg/kg/injection, schedule: Q01DX009 (ip), vehicle: suspension in saline
  T/C: 118 % of control
[14]
  T/C: 90 % of control
dose: 50.0 mg/kg/injection, schedule: Q01DX009 (ip), vehicle: suspension in saline
  T/C: 97 % of control
[15]
  T/C: 90 % of control
dose: 100.0 mg/kg/injection, schedule: Q01DX009 (ip), vehicle: suspension in saline
  T/C: 104 % of control
[16]
  T/C: 87 % of control
dose: 200.0 mg/kg/injection, schedule: Q01DX009 (ip), vehicle: suspension in saline
  T/C: 94 % of control

## Cc1cc(=O)oc2ccc3c(=O)ccoc3c12
[7]
  T/C: 95 % of control
[8]
  T/C: 96 % of control
[9]
  T/C: 97 % of control

## O=NNc1ccc(I)cn1
dose: 6.25 mg/kg/injection, schedule: Q01DX009 (ip), vehicle: water
  T/C: 170 % of control
dose: 12.5 mg/kg/injection, schedule: Q01DX009 (ip), vehicle: water
  T/C: 173 % of control and 190 % of control
